One data set addresses T1, BuChE from human serum (Homo sapiens, UniProt P06276).
T1 construct: 0.01 unit BuChE from human serum; from tissue; host or cells: human serum
The data set is described as follows: Butyrylcholinesterase (BuChE) inhibition, Ellman colorimetric method. The class given is biochemical. As to the method: Butyrylcholinesterase (BuChE) Inhibition (from Human Serum)
BuChE inhibitory activity was evaluated at 30° C. by the colorimetric method reported by Ellman. The assay solution consisted of 0.01 unit BuChE from human serum, 0.1 M sodium phosphate buffer pH 8, 0.3 mM 5,5′-dithiobis(2-nitrobenzoic acid) (DTNB, Ellman's reagent), and 0.5 mM butyrylthiocholine iodide as the substrate of the enzymatic reaction. Enzyme activity was determined by measuring the absorbance at 405 nm during 5 minutes with a microplate reader Digiscan 340T. The tested compounds were preincubated with the enzyme for 10 minutes at 30° C. The reaction rate was calculated with, at least, triplicate measurements. The IC50 is defined as the concentration of each compound that reduces a 50% the enzymatic activity with respect to that without inhibitor.
On the technique in general: Ellman's reagent forms a yellow product with free thiols.

The next data set has as its target AChE peripheral site (Bos taurus, UniProt P23795). In words: Propidium competition (fluorescence). The class given is binding. Particulars: 10 μM AchE, 20 μM propidium iodide, pH 8.0. As for the experimental part: Fluorescence was measured in a Fluostar optima plate reader (BMG). Measurements were carried out in 100 μl solution volume, in 96-well plates. The buffer used wad 1 mM Tris/HCl, pH 8.0. 10 μM AchE was incubated, at least 6 hours, with the molecules at different concentrations. 20 μM propidium iodide was added 10 min before fluorescence measurement. The excitation wavelength was 485 nm, and that of emission, 620 nm.

In data set [1] the test system is human neuroblastoma cell line SH-SY5Y. In words: Toxicity measurement (LDH release). The format is cell-based. The note with it: 24 hours exposure. As for the experimental part: The cytotoxicity effect of the molecules was tested in the human neuroblastoma cell line SH-SY5Y. These cells were cultured in 96-well plates in DULBECCO'S MOD EAGLE medium, supplemented with 10% fetal bovine serum and 1% penicillin/streptomycin, and grown in a 5% CO2 humidified incubator at 37° C.
The cells were plated at 10^4 cells for each well, at least, 48 hours before the toxicity measure. Cells were exposed for 24 hours to the compounds at different concentrations (from 10^−5 to 10^−9), quantitative assessment of cell death was made by measurement of the intracellular enzyme lactate dehydrogenase (LDH) (citotoxicity detection kit, Roche). The quantity of LDH was evaluated in a microplate reader Anthos 2010, at 492 and 620 nm. Controls were taken as 100% viability.
On the technique in general: LDH in the medium is a marker of cell lysis.

For data set [2], the target named is T2, AChE (from bovine erythrocytes) (Bos taurus, UniProt P23795).
T2 construct: 0.02 unit AChE (Sigma Chemical Co. from bovine erythrocytes); purchased Sigma Chemical Co; host or cells: bovine erythrocytes (natural source)
In words: biochemical. The class given is biochemical. As for the experimental part:
Acetylcholinesterase (AChE) Inhibition (from Bovine Erythrocytes)
AChE inhibitory activity was evaluated at 30° C. by the colorimetric method reported by Ellman [Ellman, G. L.; Courtney, K. D.; Andres, B.; Featherstone, R. M. Biochem. Pharmacol. 1961, 7, 88-95]. The assay solution consisted of 0.1 M phosphate buffer pH 8, 0.3 mM 5,5′-dithiobis(2-nitrobenzoic acid) (DTNB, Ellman's reagent), 0.02 unit AChE (Sigma Chemical Co. from bovine erythrocytes), and 0.5 mM acetylthiocholine iodide as the substrate of the enzymatic reaction. The compounds tested were added to the assay solution and pre incubated with the enzyme for 5 min at 30° C. After that period, the substrate was added. […] The compound concentration producing 50% of AChE inhibition (IC50) was determined.

Data set [3] has as its target T3, β-amyloid-huAChE aggregation complex (Homo sapiens, UniProt P22303).
T3 construct: purchased Sigma-Aldrich (huAChE); rPeptide (Aβ1-40)
The data set is described as follows: Inhibition of β-amyloid aggregation (Congo Red binding). The class given is biochemical. The note with it: 50 μM propidium iodide as reference; Aβ1-40 0.1 mM, Aβ:huAChE 200:1, 48 hours. As to the method: Inhibition of β-Amyloid Aggregation
The generation of AChE-Aβ complexes were carried out as described previously [Alvarez, A et al. J. Neurosci., 1998, 18, 3213-3223; Muñoz, F. J.; Inestrosa, N. C. FEBS Let., 1999, 450, 205-209]. Stock solutions of Aβ1-40 (rPeptide, Georgia USA) at 3.5 mM were dissolved in PBS (pH 7.4) after HFIP treatment to obtain monomeric starting material, according to manufacture's recommendations. For co-incubation experiments, 0.1 mM of peptide was mixed with human recombinant acetylcholinesterase (huAchE, Sigma-Aldrich), in the same buffer at molar ratio Aβ:huAChE 200:1, and stirred for 48 hours in a microtiter plate at room temperature. The fibrils obtained were characterized by Congo Red (CR) binding.
For the inhibition of β-amyloid aggregation, the compounds tested were used at the IC50 defined in the previous paragraph of the biological evaluation, 50 μM propidium iodide was used as reference [Inestrosa, N. C et al., J. Neuron, 1996, 16, 881-891].
To quantify the amount of fibrils aggregated, the binding to CR was done as described [Klunk, W E.; Pettegrew, J W.; Abraham, D J. J. Hystochem Cytochem., 1989, 8, 1293-1297]. Briefly, 5.5 μl aliquot of the aggregation mixture was added to 132 μl of a 25 μM CR solution (100 mM phosphate buffer pH 7.4, 150 mM NaCl), and incubated for 30 minutes at room temperature. Absorbance was measured at 480 and 540 nm and the molarity of aggregates calculated by CR(M)=(A540/25295)−(A480/46306).

Where [4] appears, read: BuChE from human serum, 30° C., pH 8, read-out: IC50 BuChE.
Setting [5] is: AChE from bovine erythrocytes, 30° C., pH 8, read-out: IC50 AChE.

Where two headings read alike, the source gives them in different places.

This is an account of results in patent US7910739B2, “Acetylcholinesterase dual inhibitors” (priority 2003, dated 2011).

T1 sequence (P06276 29-602): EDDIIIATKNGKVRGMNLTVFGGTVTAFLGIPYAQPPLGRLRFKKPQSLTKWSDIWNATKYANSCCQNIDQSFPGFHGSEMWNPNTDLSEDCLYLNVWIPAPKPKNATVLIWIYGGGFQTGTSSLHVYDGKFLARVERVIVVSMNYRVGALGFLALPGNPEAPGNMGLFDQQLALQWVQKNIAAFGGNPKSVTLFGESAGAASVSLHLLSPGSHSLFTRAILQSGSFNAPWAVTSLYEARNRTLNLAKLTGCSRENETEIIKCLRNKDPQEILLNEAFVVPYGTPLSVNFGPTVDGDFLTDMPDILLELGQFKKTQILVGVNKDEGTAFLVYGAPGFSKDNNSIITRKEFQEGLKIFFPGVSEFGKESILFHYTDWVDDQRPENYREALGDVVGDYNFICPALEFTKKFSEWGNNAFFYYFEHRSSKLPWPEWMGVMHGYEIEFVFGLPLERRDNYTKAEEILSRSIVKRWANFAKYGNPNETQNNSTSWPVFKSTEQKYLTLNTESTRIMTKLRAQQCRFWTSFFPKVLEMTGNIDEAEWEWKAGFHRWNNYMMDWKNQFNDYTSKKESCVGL
T2 sequence (P23795 other isoform, or with tags, fused parts or gaps): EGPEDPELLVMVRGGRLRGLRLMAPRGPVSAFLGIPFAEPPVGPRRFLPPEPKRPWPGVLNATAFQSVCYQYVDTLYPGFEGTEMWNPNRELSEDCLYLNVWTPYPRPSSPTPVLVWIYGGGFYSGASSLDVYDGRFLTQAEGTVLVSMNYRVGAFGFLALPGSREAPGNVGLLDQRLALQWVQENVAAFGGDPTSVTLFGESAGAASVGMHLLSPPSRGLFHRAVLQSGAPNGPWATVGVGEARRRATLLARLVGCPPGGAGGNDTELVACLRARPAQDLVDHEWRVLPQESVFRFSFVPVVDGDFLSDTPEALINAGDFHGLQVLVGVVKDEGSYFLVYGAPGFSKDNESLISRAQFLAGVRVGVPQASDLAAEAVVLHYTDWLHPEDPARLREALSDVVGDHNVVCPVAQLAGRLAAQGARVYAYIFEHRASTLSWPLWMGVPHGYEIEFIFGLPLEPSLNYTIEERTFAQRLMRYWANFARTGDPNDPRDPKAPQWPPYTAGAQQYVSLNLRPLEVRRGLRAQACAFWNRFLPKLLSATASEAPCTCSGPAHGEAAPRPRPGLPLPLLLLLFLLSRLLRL
Sequence of AChE peripheral site (P23795 other isoform, or with tags, fused parts or gaps): as above
T3 sequence (P22303 32-614, one chain of several): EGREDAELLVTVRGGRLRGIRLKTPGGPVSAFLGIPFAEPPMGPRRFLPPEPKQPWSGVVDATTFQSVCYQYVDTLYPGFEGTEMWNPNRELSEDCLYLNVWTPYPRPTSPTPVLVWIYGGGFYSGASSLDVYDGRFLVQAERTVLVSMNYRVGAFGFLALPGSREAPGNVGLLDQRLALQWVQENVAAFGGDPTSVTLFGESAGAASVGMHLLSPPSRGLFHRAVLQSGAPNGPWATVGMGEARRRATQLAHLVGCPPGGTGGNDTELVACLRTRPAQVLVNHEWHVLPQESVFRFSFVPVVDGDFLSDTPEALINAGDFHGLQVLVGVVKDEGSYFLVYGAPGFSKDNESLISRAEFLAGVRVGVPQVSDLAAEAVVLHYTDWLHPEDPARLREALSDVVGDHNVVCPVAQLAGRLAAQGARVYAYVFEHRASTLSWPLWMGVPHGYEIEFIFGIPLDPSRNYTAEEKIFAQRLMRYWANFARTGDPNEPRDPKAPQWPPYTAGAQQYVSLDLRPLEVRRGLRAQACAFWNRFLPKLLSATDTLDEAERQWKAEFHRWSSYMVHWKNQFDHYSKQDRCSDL

In the case of `O=C(CCc1c[nH]c2ccccc12)NCCCCCCCCNc1c2c(nc3cc(Cl)ccc13)CCCC2` [Compound 5, N-[8-(6-Chloro-1,2,3,4-tetrahydro-acridin-9-ylamino)-octyl]-3-(1H-indol-3-yl)propionamide], the values for the half-inhibitory concentration (IC50) (on BuChE from human serum (setting [4]); in data set [2] (setting [5])) were 5.7 nM and 0.5 nM, respectively. This compound gave a Propidium competition at AChE peripheral site of 10 µM. Moreover, in data set [1], the Toxicity worked out at 10 µM.

Take `O=C(NCCCCCNc1c2c(nc3cc(Cl)ccc13)CCCC2)c1c[nH]c2ccccc12` [Compound 10, 1H-Indole-3-carboxylic acid [5-(6-chloro-1,2,3,4-tetrahydro-acridin-9-ylamino)-pentyl]-amide]: the concentration for half-maximal inhibition (IC50) (in general, the point on the concentration scale where inhibition reaches its midpoint) at BuChE from human serum (setting [4]) amounted to 9.5 nM; in data set [2] (setting [5]) it was 180 nM. The compound also showed a Propidium competition on AChE peripheral site of 100 µM. In data set [1], the Toxicity is >10 µM.

Take `Clc1ccc2c(NCCc3c[nH]c4ccccc34)c3c(nc2c1)CCCC3` [Comparative Example, N-[2-3(Indolyl)ethyl]-6-chlorotacrine, reference compound]: the half-inhibitory concentration (IC50) in data set [2] (setting [5]) worked out at 537 nM.

Consider `O=C(NCCCCCCCCNc1c2c(nc3cc(Cl)ccc13)CCCC2)c1c[nH]c2ccccc12` [Compound 13, 1H-Indole-3-carboxylic acid [8-(6-chloro-1,2,3,4-tetrahydro-acridin-9-ylamino)octyl]-amide], for which the IC50 at BuChE from human serum (setting [4]) came to 22.4 nM; in data set [2] (setting [5]), 46 nM. The compound also showed a Propidium competition on AChE peripheral site of 10 µM. Moreover, in data set [1], the Toxicity was >10 µM.

Take `O=C(CCc1c[nH]c2ccccc12)NCCCCCCCCCNc1c2c(nc3cc(Cl)ccc13)CCCC2` [Compound 6, N-[9-(6-Chloro-1,2,3,4-tetrahydro-acridin-9-ylamino)-nonyl]-3-(1H-indol-3-yl)-propionamide]: on BuChE from human serum (setting [4]), the IC50 was 9.6 nM. Also, the Propidium competition at AChE peripheral site is >100 µM. For the same compound, the Toxicity in data set [1] is >100 µM.

`O=C(NCCCCCCCNc1c2c(nc3cc(Cl)ccc13)CCCC2)c1n[nH]c2ccccc12` [Compound 21, 1H-Indazole-3-carboxylic acid [7-(6-chloro-1,2,3,4-tetrahydroacridin-9-ylamino)heptyl]-amide]: the IC50 on BuChE from human serum (setting [4]) was found to be 79 nM; in data set [2] (setting [5]) it was 95 nM. On AChE peripheral site, this compound registered a Propidium competition of 100 µM. In addition, the Toxicity in data set [1] was >10 µM.

For the compound `CN(CCCNC(=O)CCc1c[nH]c2ccccc12)CCCNc1c2c(nc3cc(Cl)ccc13)CCCC2` [Compound 9, N-(3-{[3-(6-chloro-1,2,3,4-tetrahydro-acridin-9-ylamino)-propyl]-methyl-amino}-propyl)-3-(1H-indol-3-yl)-propionamide], the IC50 on BuChE from human serum (setting [4]) worked out at 7.57 nM; in data set [2] (setting [5]) it was 2.88 nM. This compound also came in with a Propidium competition at AChE peripheral site of 10 µM. In addition, the Toxicity in data set [1] was >100 µM.

Regarding `O=C(NCCCCCCNc1c2c(nc3cc(Cl)ccc13)CCCC2)c1c[nH]c2ccccc12` [Compound 11, 1H-Indole-3-carboxylic acid [6-(6-chloro-1,2,3,4-tetrahydro-acridin-9-ylamino)-hexyl]-amide], the figures for the 50% inhibitory concentration (IC50) (at BuChE from human serum (setting [4]); in data set [2] (setting [5])) were 1.7 nM and 33 nM, respectively. The same compound came in with a Propidium competition at AChE peripheral site of 100 µM. In addition, the Toxicity in data set [1] was >10 µM.

With `O=C(CCc1c[nH]c2ccccc12)NCCCCCNc1c2c(nc3ccccc13)CCCC2` [Compound 2, 3-(1H-Indol-3-yl)-N-[5-(1,2,3,4-tetrahydro-acridin-9-ylamino)-pentyl]-propionamide], the half-maximal inhibitory concentration (IC50) on BuChE from human serum (setting [4]) was found to be 1 nM; in data set [2] (setting [5]), 70 nM. The Propidium competition on AChE peripheral site is 10 µM. Also, the Toxicity in data set [1] is >100 µM.

Take `O=C(Cc1c[nH]c2ccc(Br)cc12)NCCCCCCCNc1c2c(nc3cc(Cl)ccc13)CCCC2` [Compound 18, 2-(5-Bromo-1H-indol-3-yl)-N-[7-(6-chloro-1,2,3,4-tetrahydro-acridin-9-ylamino)-heptyl]-acetamide]: the IC50 is 1.7 nM at BuChE from human serum (setting [4]) and 0.63 nM in data set [2]. This compound showed a Propidium competition on AChE peripheral site of 100 µM. Besides, the Toxicity in data set [1] is >10 µM.

Turning to `O=C(CCc1c[nH]c2ccccc12)NCCCCCCCNc1c2c(nc3cc(Cl)ccc13)CCCC2` [Compound 4, N-[7-(6-Chloro-1,2,3,4-tetrahydro-acridin-9-ylamino)-heptyl]-3-(1H-indol-3-yl)-propionamide], the 50% inhibitory concentration (IC50) at BuChE from human serum (setting [4]) is 0.1 nM; in data set [2] (setting [5]), 0.06 nM. Besides, the Propidium competition on AChE peripheral site came to 10 µM. This compound gave a Toxicity in data set [1] of 10 µM.

`CC[N+](C)(CC)CCC[n+]1c(-c2ccccc2)c2cc(N)ccc2c2ccc(N)cc21` [propidium iodide, reference compound]: the “reduction in the β-amyloid-huAChE aggregation complex” value in data set [3] is 10%.

With `O=C(CCCc1c[nH]c2ccccc12)NCCCCCCNc1c2c(nc3cc(Cl)ccc13)CCCC2` [Compound 16, N-[6-(6-Chloro-1,2,3,4-tetrahydro-acridin-9-ylamino)-hexyl]4-(1H-Indol-3-yl)-butyramide], the 50% inhibitory concentration (IC50) is 5.6 nM at BuChE from human serum (setting [4]) and 0.48 nM in data set [2] (setting [5]). At AChE peripheral site, this compound came in with a Propidium competition of 100 µM. Also, the Toxicity in data set [1] was >10 µM.

On to `O=C(NCCCCCCNc1c2c(nc3cc(Cl)ccc13)CCCC2)OCCc1c[nH]c2ccccc12` [Compound 24, [6-(6-Chloro-1,2,3,4-tetrahydro-acridin-9-ylamino)-hexyl]-carbamic Acid 2-(1h-indol-3-yl)ethyl Ester], for which the concentration for half-maximal inhibition (IC50) on BuChE from human serum came to 3.2 nM; in data set [2] (setting [5]), 0.7 nM. The compound further registered a Propidium competition at AChE peripheral site of 100 µM. Further, the Toxicity in data set [1] is >10 µM.

For `O=C(NCCCCCCCNc1c2c(nc3cc(Cl)ccc13)CCCC2)c1c[nH]c2ccccc12` [Compound 12, 1H-Indole-3-carboxylic acid [7-(6-chloro-1,2,3,4-tetrahydro-acridin-9-ylamino)-heptyl]-amide], the figures for the IC50 (on BuChE from human serum (setting [4]); in data set [2] (setting [5])) were 19 nM and 36 nM, respectively. Besides, the Propidium competition at AChE peripheral site turned out to be 100 µM. Further, the Toxicity in data set [1] was >10 µM.

On to `O=C(CCc1c[nH]c2ccccc12)NCCCCCCCCCCNc1c2c(nc3cc(Cl)ccc13)CCCC2` [Compound 7, N-[10-(6-Chloro-1,2,3,4-tetrahydro-acridin-9-ylamino)-decyl]-3-(1H-indol-3-yl)-propionamide], for which the IC50 on BuChE from human serum (setting [4]) came out at 54 nM; in data set [2] (setting [5]), 21.9 nM. The compound also gave a Propidium competition at AChE peripheral site of 10 µM. In addition, in data set [1], the Toxicity was >100 µM.
